Measured values from patent US4692443A, “3-bicyclicpyridinium-methyl cephalosporins” (Eli Lilly and Company, priority 1984, dated 1987).
≈ marks a conversion by molar mass, not a printed value. Where two headings read alike, the source gives them in different places.

How the values were obtained:
Assay type in all cases: cell-based
[1] = tested on: Staph. aureus X1.1; assay: standard in vitro agar dilution assay (MIC); settings: Staphylococcus aureus; Staph. aureus strain X1.1; read-out: Agar Dilution MIC
[2] = tested on: Klebsiella KAE; assay: standard in vitro agar dilution assay (MIC); settings: read-out: Agar Dilution MIC
[3] = tested on: Staph. aureus X400; assay: standard in vitro agar dilution assay (MIC); settings: Staphylococcus aureus; Staph. aureus strain X400
[4] = tested on: Strep. D X66; assay: standard in vitro agar dilution assay (MIC); settings: Strep. D strain X66
[5] = tested on: Strep. D 9960; assay: standard in vitro agar dilution assay (MIC); settings: Strep. D strain 9960
[6] = tested on: Staph. epi 222; assay: standard in vitro agar dilution assay (MIC); settings: Staph. epi strain 222
[7] = tested on: Staph. aureus V41; assay: standard in vitro agar dilution assay (MIC); settings: Staphylococcus aureus
[8] = tested on: Enterobacter aerogenes C32; assay: standard in vitro agar dilution assay (MIC); settings: Klebsiella aerogenes
[9] = tested on: Staph. aureus S13E; assay: microbe, parasite or virus in culture; settings: Staphylococcus aureus, read-out: Agar Dilution MIC
[10] = tested on: Staph. epi EPI1; assay: standard in vitro agar dilution assay (MIC); settings: Staph. epi strain EPI1
[11] = tested on: E. coli N10; assay: standard in vitro agar dilution assay (MIC); settings: Escherichia coli
[12] = tested on: Pseudomonas X239; assay: standard in vitro agar dilution assay (MIC); settings: Pseudomonas strain X239
[13] = tested on: Pseudomonas X528; assay: standard in vitro agar dilution assay (MIC); settings: Pseudomonas strain X528
Source text: The antibacterial activity of several representative compounds of the invention has been evaluated in standard in vitro agar dilution assays. The following Table presents typical minimum inhibitory concentrations (MIC's) in μg /ml for exemplary compounds when evaluated against typical Gram + and Gram - microorganism.

[14] = tested on: Strep. A C203; assay: standard in vitro agar dilution assay (MIC); settings: Strep. A strain C203
[15] = tested on: E. coli TEM; assay: standard in vitro agar dilution assay (MIC); settings: Escherichia coli; E. coli strain TEM; read-out: Agar Dilution MIC
[16] = tested on: Strep. PN PARK; assay: standard in vitro agar dilution assay (MIC); settings: Strep. PN strain PARK
[17] = tested on: Klebsiella X68; assay: standard in vitro agar dilution assay (MIC); settings: Klebsiella strain X68; read-out: Agar Dilution MIC
[18] = tested on: E. coli EC14; assay: standard in vitro agar dilution assay (MIC); settings: Escherichia coli; E. coli strain EC14; read-out: Agar Dilution MIC
[19] = tested on: Klebsiella X26; assay: standard in vitro agar dilution assay (MIC); settings: Klebsiella strain X26; read-out: Agar Dilution MIC
[20] = tested on: Salmonella X514; assay: standard in vitro agar dilution assay (MIC); settings: Salmonella strain X514; read-out: Agar Dilution MIC
[21] = tested on: Serratia X99; assay: standard in vitro agar dilution assay (MIC); settings: Serratia strain X99; read-out: Agar Dilution MIC
[22] = tested on: H. influ. 76; assay: standard in vitro agar dilution assay (MIC); settings: H. influ. strain 76; read-out: Agar Dilution MIC
[23] = tested on: H. influ. C.L.; assay: standard in vitro agar dilution assay (MIC); settings: H. influ. strain C.L.; read-out: Agar Dilution MIC
[24] = Staph. aureus strain V41, read-out: Agar Dilution MIC
[25] = Enterobacter aerogenes strain C32, read-out: Agar Dilution MIC
[26] = E. coli strain N10, read-out: Agar Dilution MIC

Compound	MIC [1] [µg/mL]	MIC [3] [µg/mL]	MIC [4] [µg/mL]	MIC [5] [µg/mL]	MIC [6] [µg/mL]	MIC [9] [µg/mL]	MIC [10] [µg/mL]	MIC [12] [µg/mL]	MIC [13] [µg/mL]	MIC ([2]; Klebsiella strain KAE) [µg/mL]	MIC [14] [µg/mL]	MIC [7, 24] [µg/mL]	MIC [15] [µg/mL]	MIC [8, 25] [µg/mL]	MIC [16] [µg/mL]	MIC [17] [µg/mL]	MIC [11, 26] [µg/mL]	MIC [18] [µg/mL]	MIC [19] [µg/mL]	MIC [20] [µg/mL]	further results
CC(C)(O/N=C(\C(=O)N[C@@H]1C(=O)N2C(C(=O)[O-])=C(C[n+]3ccccc3)CS[C@H]12)c1csc(N)n1)C(=O)O [Ceftazidime, ceftazidime, reference compound]	8 (≈ 14.6 µM)	128 (≈ 234 µM)	> 128	16 (≈ 29.3 µM)	16 (≈ 29.3 µM)	32 (≈ 58.5 µM)	16 (≈ 29.3 µM)	2 (≈ 3.66 µM)	2 (≈ 3.66 µM)	–	–	–	–	–	–	–	–	–	–	–	MIC ([2]; Klebsiella): 0.5 µg/mL (≈ 0.915 µM); MIC ([7]; V41, read-out: Agar Dilution MIC): 32 µg/mL (≈ 58.5 µM); MIC ([8]; C32, read-out: Agar Dilution MIC): 0.25 µg/mL (≈ 0.457 µM); MIC ([11]; N10, read-out: Agar Dilution MIC): 0.25 µg/mL (≈ 0.457 µM)
CO/N=C(\C(=O)NC1C(=O)N2C(C(=O)[O-])=C(C[n+]3ccc4c(c3)nc(C)n4C)CSC12)c1csc(N)n1 (stereo not drawn) [Example 6, syn-7-[2-(2-aminothiazol-4-yl)-2-methoxyiminoacetamido]-3-(1,2-dimethyl-1H-imidazolo[4,5-c]pyridinium-5-ylmethyl)-3-cephem-4-carboxylate]	2 (≈ 3.69 µM)	32 (≈ 59 µM)	> 128	4 (≈ 7.37 µM)	1 (≈ 1.84 µM)	8 (≈ 14.7 µM)	2 (≈ 3.69 µM)	4 (≈ 7.37 µM)	4 (≈ 7.37 µM)	2 (≈ 3.69 µM)	< 0.008	16 (≈ 29.5 µM)	< 0.008	0.03 (≈ 0.0553 µM)	< 0.008	0.03 (≈ 0.0553 µM)	0.03 (≈ 0.0553 µM)	< 0.008	< 0.008	0.03 (≈ 0.0553 µM)	–
CO/N=C(\C(=O)NC1C(=O)N2C(C(=O)[O-])=C(C[n+]3ccc4[nH]cnc4c3)CSC12)c1csc(N)n1 (stereo not drawn) [Example 2, syn-7-[2-(2-Aminotiazol-4-yl)-2-methoxyiminoacetamido]-3-(1H-imidazolo[4,5-c]pyridinium-5-ylmethyl)-3-cephem-4-carboxylate]	1 (≈ 1.94 µM)	64 (≈ 124 µM)	–	2 (≈ 3.89 µM)	1 (≈ 1.94 µM)	8 (≈ 15.5 µM)	4 (≈ 7.77 µM)	2 (≈ 3.89 µM)	1 (≈ 1.94 µM)	4 (≈ 7.77 µM)	< 0.008	8 (≈ 15.5 µM)	< 0.008	0.03 (≈ 0.0583 µM)	< 0.008	< 0.008	0.015 (≈ 0.0292 µM)	< 0.008	< 0.008	< 0.008	MIC [21]: 0.015 µg/mL (≈ 0.0292 µM); MIC [22]: 0.015 µg/mL (≈ 0.0292 µM); MIC [23]: 0.015 µg/mL (≈ 0.0292 µM)
CCc1nc2c[n+](CC3=C(C(=O)[O-])N4C(=O)C(NC(=O)/C(=N\OC)c5csc(N)n5)C4SC3)ccc2s1 (stereo not drawn) [Example 14, syn-7-[2-(2-aminothiazol-4-yl)-2-methoxyiminoacetamido]-3-(2-ethylthiazolo[4,5-c]pyridinium-5-ylmethyl)-3-cephem-4-carboxylate]	1 (≈ 1.79 µM)	32 (≈ 57.2 µM)	> 128	4 (≈ 7.15 µM)	1 (≈ 1.79 µM)	4 (≈ 7.15 µM)	2 (≈ 3.57 µM)	4 (≈ 7.15 µM)	4 (≈ 7.15 µM)	2 (≈ 3.57 µM)	< 0.008	4 (≈ 7.15 µM)	0.015 (≈ 0.0268 µM)	–	< 0.008	0.03 (≈ 0.0536 µM)	0.03 (≈ 0.0536 µM)	0.015 (≈ 0.0268 µM)	< 0.008	–	MIC [22]: 0.015 µg/mL (≈ 0.0268 µM)
